Results on 104 molecules are retold here after PubChem BioAssay AID1996.

Values after ≈ are worked out from the molar mass of the structure shown. Where only a bound is given, the exact number is not on record here.

The conditions of the series: buffer; pH 7.4; 200.0 µM.
In the case of `Cc1ccc(NC(=O)COC(=O)CC2CCCC2)cc1F`, the solubility (kinetic) (commonly the concentration staying in solution when a stock, usually in DMSO, is diluted into the medium) was 29.5 µg/mL (≈ 101 µM).
Then `COC(=O)c1ccc(NC(=O)c2ccc3nc(C)sc3c2)cc1`, with under 0.3 µg/mL.
Then `CCOc1ccc(C(C)=O)cc1Cn1ccsc1=N.Cl`, with over 46.9 µg/mL.
Then `CC1CCC(NC(=O)Cn2cnc3sccc3c2=O)CC1` (centres undefined), with over 45.8 µg/mL.
`COc1cccc(CNc2nc3ccccc3n2C(C)C)c1O` returned a kinetic solubility of 2.2 µg/mL (≈ 7.07 µM).
Turning to `Cc1c(CCC(=O)NC2CC2)c(=O)oc2cc(O)ccc12`, the kinetic solubility is over 43.1 µg/mL.
Next, `CC1CCN(CCNC(=S)Nc2ccc(Cl)cc2)CC1`: over 46.8 µg/mL; `COc1cccc(CN2CCN(Cc3cccc(F)c3)CC2)c1.O=C(O)C(=O)O`: 46.5 µg/mL; `Nc1cc(N2CCCCCC2)c2nonc2c1[N+](=O)[O-]`: 0.9 µg/mL (≈ 3.25 µM).
Next, `COc1cc(OC)c(NC(=O)N2CCOCC2)cc1Cl`: over 45.1 µg/mL; `CCCCc1nc2cc(C(=O)N(C)C3CCOCC3)ccc2o1`: over 47.5 µg/mL.
`CC(NS(=O)(=O)c1ccccc1)C1CC2CCC1C2` (centres undefined): the kinetic solubility came out at 6 µg/mL (≈ 21.5 µM).
`CCOC(=O)c1csc(NC(=O)c2cc(-c3ccccn3)nc3ccccc23)n1` had a solubility (kinetic) of 1 µg/mL (≈ 2.47 µM).
Next, `COc1ccc(CNC(=O)COc2cc(O)c3c(c2)OC(C)(C)CC3=O)cc1`: 43.5 µg/mL (≈ 113 µM); `Cc1ccsc1C1C(C#N)=C(N)OC2=C1C(=O)CC(C)(C)C2` (centres undefined): over 47.2 µg/mL; `Cc1cc(C(=O)N2CCCC(Nc3ccc(F)cc3)C2)c(C)o1` (centres undefined): over 47.5 µg/mL.
Then `CCn1c(SCc2nc3ccccc3c(=O)[nH]2)nc2ccccc21`, with 1.1 µg/mL (≈ 3.27 µM).
For `O=C1COc2ccc(S(=O)(=O)N3CCc4ccccc43)cc2N1`, the kinetic solubility came to 2.4 µg/mL (≈ 7.26 µM).
Then `O=C(COC(=O)C1CCCC1)NCc1ccc(Cl)cc1`, with over 44.4 µg/mL.
Then `Cc1ccc2[nH]c(=O)c(CN(C(=O)c3cccc([N+](=O)[O-])c3)C(C)(C)C)cc2c1`, with 2.9 µg/mL (≈ 7.37 µM).
Next, `Cc1ccsc1CNC1CCCCC1`: 24.1 µg/mL (≈ 115 µM).
Molecule `CCCn1c(CCl)nc2cc(S(=O)(=O)N3CCOCC3)ccc21` registered a solubility (kinetic) of 0.6 µg/mL (≈ 1.68 µM).
Then `Cc1nc(NC(=O)c2cccnc2Cl)sc1C`, with over 40.2 µg/mL; and `COc1cc(C)cc(OC)c1OCC(=O)Nc1cc(C)on1`, with 6.4 µg/mL (≈ 20.9 µM).
Then `O=C(Nc1ccc(Cl)cc1)Nc1ccon1`, with 26.7 µg/mL (≈ 112 µM); and `CSc1nc2c(cc1C#N)C(=O)CC(C)(C)C2`, with 10.3 µg/mL (≈ 41.8 µM); and `CCOC(=O)C(C)Oc1c(C(=O)OC)sc2ncccc12` (centres undefined), with 38.2 µg/mL (≈ 123 µM).
Next, `O=C(CN1CCOCC1)Nc1ccc2c(c1)CCC2`: over 39.1 µg/mL; `Cc1[nH]c2ccccc2c1C(=O)C(=O)NCCc1c[nH]c2ccccc12`: 2.6 µg/mL (≈ 7.53 µM).
In turn, `Cl.NC(=NCc1ccccc1)c1cccc([N+](=O)[O-])c1` displayed a kinetic solubility of over 43.8 µg/mL.
Molecule `Cc1c(C(=O)NNC(=O)c2cccnc2)cccc1[N+](=O)[O-]` displayed a kinetic solubility of over 45 µg/mL.
Then `NC(=O)c1ccccc1N=Cc1cccnc1`, with over 33.8 µg/mL; and `CCOC(=O)Cc1csc(NC(=O)Nc2ccc(C)cc2)n1`, with 3.8 µg/mL (≈ 11.9 µM).
Next, `COc1ccc(Cc2noc(-c3ccc([N+](=O)[O-])cc3)n2)cc1OC`: 2 µg/mL (≈ 5.86 µM); `CC1CC(C)CN(S(=O)(=O)c2ccc3c(c2)CC(=O)N3)C1` (centres undefined): 9.4 µg/mL (≈ 30.5 µM); `CCOc1ccc(C(=O)N2CCN(c3ccccn3)CC2)cc1OCC`: over 53.3 µg/mL.
Next, `COc1ccc(CNC(=O)C2CCN(C(=O)c3ccco3)CC2)cc1`: 45.8 µg/mL (≈ 134 µM).
Consider `COc1cc(CC(=O)OCC(=O)N(C)C2CCCCC2)cc(OC)c1OC`, for which the solubility (kinetic) was found to be 52.4 µg/mL (≈ 138 µM).
Then `CCCN(CC(=O)Nc1ccccc1OC)C(=O)c1ccccn1`, with over 49.1 µg/mL; and `COc1ccccc1C(=O)NC(=O)CSc1nnc(C)s1`, with over 48.5 µg/mL.
Next, `CC1CCCCC1NC(=S)Nc1ccc(Cl)cc1Cl` (centres undefined): 1 µg/mL (≈ 3.15 µM).
Then `CCN(CC)S(=O)(=O)c1ccc(N2CC(C(=O)N3Cc4ccccc4CC3C(N)=O)CC2=O)cc1` (centres undefined), with over 74.8 µg/mL; and `COc1ccc(-c2nc3ccccc3c(=O)n2O)cc1`, with 37.9 µg/mL (≈ 141 µM).
In the case of `Cc1c(Cc2ccc3c(c2)OCO3)sc(NC(=O)C2CC2)c1C(N)=O`, the kinetic solubility amounted to 1.8 µg/mL (≈ 5.02 µM).
Then `Cl.O=C(OCCN1CCOCC1)c1ccccc1`, with 39.6 µg/mL; and `O=C(CC1SC(N2CCOCC2)=NC1=O)Nc1cccc(C(F)(F)F)c1` (centres undefined), with 27.8 µg/mL (≈ 71.8 µM).
Then `Cc1ccc(NC(=O)Cc2c(F)cccc2Cl)cc1S(=O)(=O)N1CCOCC1`, with 2 µg/mL (≈ 4.68 µM).
In the case of `COc1ccc(-c2nc(-c3cccnc3)no2)cc1OC`, the solubility (kinetic) was 25.8 µg/mL (≈ 91.1 µM).
Next, `CCn1c(O)c(C=NCCN2CCOCC2)c(=O)[nH]c1=S`: over 46.9 µg/mL.
As for `Cc1cc(C)c(NC(=O)C2CC3CCC2C3)c(C)c1` (centres undefined), the kinetic solubility amounted to 10.1 µg/mL (≈ 39.2 µM).
Next, `O=C(NC(=S)Nc1ccccc1)C1CCCCC1`: 0.6 µg/mL (≈ 2.29 µM).
Then `CC(=O)c1ccc([N+](=O)[O-])c(CS(=O)(=O)c2ccccc2)c1`, with under 0.7 µg/mL.
The molecule `CN(CC#CC(O)(c1ccccc1)c1ccccc1)C(C)(C)C` showed a solubility (kinetic) of over 46.1 µg/mL.
Next, `COc1cccc(C(=O)OCC(=O)NCC2CCCO2)c1` (centres undefined): over 44 µg/mL; `Cc1ccc(S(=O)(=O)NC(=O)N(C)C2CCCCC2)cc1`: over 46.6 µg/mL.
Next, `Cc1nc(N2CCN(C(=O)c3ccco3)CC2)[nH]c(=O)c1C`: over 45.3 µg/mL; `N/C(=N\OC(=O)c1cccc(Br)c1)c1ccccn1`: 3 µg/mL (≈ 9.37 µM).
Then `Cc1cc(=O)[nH]c(SCC(=O)NC2CCCCC2)n1`, with 32.3 µg/mL (≈ 115 µM); and `COc1ccc(CC(=O)N2CCN(c3cccc(C)c3C)CC2)cc1`, with 25.1 µg/mL (≈ 74.2 µM).
Take `O=C1CN(S(=O)(=O)c2ccc(F)cc2)CCN1`: the solubility (kinetic) is over 38.7 µg/mL.
Regarding `COc1ccc(NC(=O)CCn2cccc2)c(OC)c1`, the solubility (kinetic) turned out to be 36.1 µg/mL (≈ 132 µM).
Next, `O=C(COc1ccc(F)cc1)Nc1nc2c(s1)CCCC2`: 2.6 µg/mL (≈ 8.49 µM).
Next, `CCOc1ccccc1NC(=O)CN1CCC(NC(=O)Nc2ccccc2)CC1`: 18.5 µg/mL (≈ 46.7 µM).
Next, `CCCc1c(C)[nH]c2ccc(C(=O)O)cc2c1=S`: over 39.2 µg/mL; `COc1ccc(C(=O)N(c2ccc(C)cc2)C2C=CS(=O)(=O)C2)cc1OC` (centres undefined): 55.3 µg/mL (≈ 143 µM); `CCCCN(C(=O)c1c(-c2ccccc2)noc1C)c1c(N)n(CCC)c(=O)[nH]c1=O`: over 63.8 µg/mL.
Molecule `CC1CCCCC1NC(=O)Cn1cc([N+](=O)[O-])ccc1=O` (centres undefined) showed a kinetic solubility of 29.1 µg/mL (≈ 99.2 µM).
Next, `Cc1ccc(C(=O)CCC(=O)Nc2cccc(C)c2)cc1`: under 0.6 µg/mL.
Next, `CC(=O)c1sc(Nc2nc3cc4c(cc3s2)OCO4)nc1C`: 0.6 µg/mL (≈ 1.8 µM); `COc1ccc(-c2cc(C(=O)N3CCCC3)c3ccccc3n2)cc1OC`: 53.9 µg/mL (≈ 149 µM).
Next, `COc1ccccc1/C=C/C(=O)NC(=S)Nc1ccccn1`: 1.3 µg/mL (≈ 4.15 µM).
On to `O=C(COc1ccccc1Br)N1CCNC1=O`, for which the kinetic solubility was determined as 42.2 µg/mL (≈ 141 µM).
Then `CC1(C)CC(=O)c2ccc(OCc3ccc([N+](=O)[O-])cc3)cc2O1`, with under 0.7 µg/mL.
Then `O=C(NC(=S)N1CCCCCC1)c1ccccc1Cl`, with over 44.5 µg/mL; and `CNCC(=O)Nc1ccc(OC(F)(F)F)cc1.Cl`, with 41.4 µg/mL; and `CCN1CCc2c(OCc3ccc(C)cc3)cccc2C1=O`, with 18.9 µg/mL (≈ 64 µM).
`Cc1ccc(C(=O)Nc2nc3ccccc3[nH]2)cc1` registered a kinetic solubility of 2.4 µg/mL (≈ 9.55 µM).
Next, `O=C(CNC(=O)c1ccc(F)cc1)NCc1ccccn1`: over 43.1 µg/mL.
`CNc1nc(-c2cccs2)cc(C(F)(F)F)c1C#N` had a solubility (kinetic) of under 0.2 µg/mL.
On to `COc1ccc(CNc2ncnc3ccccc23)cc1`, for which the kinetic solubility is over 39.8 µg/mL.
As to `Br.C=CCN1C2=NCCCN2c2ccccc21`, the solubility (kinetic) is over 44.1 µg/mL.
Next, `OCc1nc2ccccc2n1CCc1ccccc1`: 36.1 µg/mL (≈ 143 µM); `CSc1ccc(CN2C(=O)NC3(CCCCCCC3)C2=O)cc1`: 5.6 µg/mL (≈ 16.8 µM).
Next, `O=C(COC(=O)/C=C/c1ccc(Br)o1)Nc1cccc(S(=O)(=O)N2CCOCC2)c1`: 5.9 µg/mL (≈ 11.8 µM); `CCC(C(=O)Nc1nc(C)c(C)s1)c1ccccc1` (centres undefined): 38.3 µg/mL (≈ 140 µM).
In turn, `COc1ccc(CNC(=S)Nc2ccccc2)cc1` yielded a solubility (kinetic) of over 40.9 µg/mL.
Then `Cc1cccc(C)c1NC(=O)N1CCC(C(=O)c2ccc(F)cc2)CC1`, with 15.4 µg/mL (≈ 43.5 µM).
Next, `CC1(C)CC(=O)C2=C(C1)NC(=O)NC2c1ccccc1` (centres undefined): 39.9 µg/mL (≈ 148 µM); `O=C(Nc1ccc(S(=O)(=O)N2CCCCC2)cc1)C1CCCO1` (centres undefined): 39.9 µg/mL (≈ 118 µM).
Next, `CN(C(=O)c1ccc(Br)o1)C1CCCCC1`: 32.2 µg/mL (≈ 113 µM); `O=C(Nc1ccc(OCC(F)(F)C(F)F)cc1)c1ccncc1`: over 49.2 µg/mL.
In turn, `COCCCNC(=S)Nc1ccc(N2CCCCC2)cc1` had a solubility (kinetic) of over 46.1 µg/mL.
Next, `Cc1cccc(C(=O)OCC(=O)NCC(C)C)c1O`: 13.6 µg/mL (≈ 51.3 µM); `O=C(O)CCCNc1ccc(S(=O)(=O)N2CCCCC2)cc1`: over 49 µg/mL.
Next, `COc1ccc(NC(=O)c2ccc(C)cc2)cc1`: 5.4 µg/mL (≈ 22.4 µM); `O=C(CCC(=O)N1CCOCC1)c1ccc(F)cc1`: over 39.8 µg/mL.
Next, `N#Cc1c(/N=C/c2ccc(-c3ccccc3C(=O)O)o2)sc2c1CCCC2`: over 56.5 µg/mL; `CCN(CC)C(=O)COC(=O)C1=NN(c2cc(C)ccc2C)C(=O)CC1`: over 53.9 µg/mL.
On to `Cc1ccnc(NCc2ccccc2O)c1`, for which the solubility (kinetic) was found to be 23 µg/mL (≈ 107 µM).
Then `Cc1cc(=O)oc2cc(NC(=O)c3ccccc3C(=O)O)ccc12`, with over 48.5 µg/mL; and `O=C1CCC(C(=O)Nc2cccc(Br)c2)N1` (centres undefined), with over 42.5 µg/mL.
For `Cc1ccc(C(=O)N/C(=C\c2cccs2)C(=O)N2CCOCC2)cc1C`, the solubility (kinetic) was over 55.6 µg/mL.
Then `COc1ccc(/C=C/C(=O)OCC(=O)NC(=O)NC(C)(C)C)cc1`, with under 0.4 µg/mL; and `CCCCS(=O)(=O)N1CCCC(C(=O)Oc2ccccc2)C1` (centres undefined), with 13.9 µg/mL (≈ 42.7 µM).
